Values of other authors in US10281467B2, “Screening assays to identify compounds which modulate T1R associated taste modalities which eliminate false positives” (SENOMYX, INC., priority 2013, dated 2019).

Test system: sweet taste
Settings: more potent/sweet than sucrose

In the case of C=C(C)[C@@H]1CC=C(/C=N/O)CC1 [Perillartine], the “potency/sweetness relative to sucrose” value is listed as “approximately 370 times”.
